# Values quoted from earlier work in patent US7091182B2, “Method for assisting in differential diagnosis and treatment of autistic syndromes” (Repligen Corporation, priority 1997, dated 2006).
# Test system: autistic patients
# Conditions: cited from earlier work
smiles,measurement,setting,value
O=C1CC[C@@]2(O)[C@H]3Cc4ccc(O)c5c4[C@@]2(CCN3CC2CC2)[C@H]1O5 [naltrexone],social behavior,double-blinded studies,failed to produce significant changes
same,positive response,open trial in autistic children,8 to 10 children were judged to show a positive response
